Where two headings read alike, the source gives them in different places. Non-standard residues stand in square brackets, D forms with d. Residues, ends and D or L forms follow the SMILES beside them. *: point of attachment. X1 = CN1CC[C@]23c4c5ccc(O)c4O[C@H]2[C@@H](O[C@@H]2O[C@H](C(=O)NCCS*)[C@@H](O)[C@H](O)[C@H]2O)C=C[C@H]3[C@H]1C5; Mpa = O=C(O)CCS
Assays:
μ1 receptor = assay: Receptor affinity, [3H]DADLE binding in calf thalamus homogenate; conditions: [3H]DADLE 0.7 nM with 10 nM DPDPE
Protocol: (§1) Tissue homogenates are prepared from calf brains (thalamus for μ1 and μ2 and frontal cortex for delta). [^3H][D-Ala^2,D-Leu^5]enkephalin (DADLE) (0.7 nM) is incubated with 3 ml of tissue homogenate (15 mg of tissue per ml) in the presence of 10 nM of [D-Pen^2,D-Pen^5]enkephalin (DPDPE) and of increasing concentrations of free or vectorized M6G. Under these conditions, specific binding to μ1 binding sites is observed. For the μ2 receptor, [D-Ala^2, MePhe^4,Gly(ol)^5]enkephalin (DAMGO) (1 nM) is incubated with 3 ml of tissue homogenate in the presence of 5 nM [D-Ser2,Leu^5]enkephalin-Thr^6 (DSLET) and of increasing concentrations of free or vectorized M6G. For the delta receptor, the tissue is incubated with [^3H] [D-Pen^2,D-Pen^5]enkephalin in the presence of free or vectorized M6G. The nonspecific binding is determined by adding to the labeled ligands 1 μM of levallorphan.

[1] = Respiratory depression (blood O2 saturation); assay type: in vivo, rat; conditions: rats, subcutaneous; for effect on oxygen saturation (FIG. 5, B and C) / oxygen level (SO2): 5×ED50 and 10×ED50 doses; for oxygen level (SO2): between 30 and 90 min; for effect on O2 saturation (FIG. 5, A): ED50 dose
Protocol: The respiratory depression was calculated in rats. The product is injected into the animals subcutaneously and, after a certain amount of time, an aliquot of blood is taken from the femoral artery via a catheter implanted beforehand. During the study, the animals are placed in a calm place. After the blood sample has been taken, the oxygen saturation (SO2) and the CO2 pressure (PCO2) are measured. The SO2 values are measured in % O2.

delta receptor = target: T1, delta receptor (Bos taurus, UniProt F1N083); assay: Receptor affinity, [3H]DPDPE binding in calf frontal cortex homogenate
T1 construct: Tissue homogenates are prepared from calf brains; from tissue; host or cells: calf brain frontal cortex homogenate
T1 sequence (F1N083 1-372): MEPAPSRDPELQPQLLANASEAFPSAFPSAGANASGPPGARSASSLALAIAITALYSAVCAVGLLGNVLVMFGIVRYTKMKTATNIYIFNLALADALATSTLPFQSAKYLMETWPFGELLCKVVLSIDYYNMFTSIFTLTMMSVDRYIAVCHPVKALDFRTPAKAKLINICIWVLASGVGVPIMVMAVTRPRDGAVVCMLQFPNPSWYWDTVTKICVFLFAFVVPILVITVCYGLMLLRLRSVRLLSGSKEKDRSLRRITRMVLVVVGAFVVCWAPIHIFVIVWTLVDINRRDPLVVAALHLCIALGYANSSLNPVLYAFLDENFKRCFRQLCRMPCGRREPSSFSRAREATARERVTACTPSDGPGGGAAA
Protocol: as §1

[2] = systemic injection; cited from earlier work
Tail flick test = assay type: in vivo, mouse; conditions: mice; for ED50: dose giving analgesic effect in 50% of the mice
Protocol: II.2. Assay Used: Tail Flick Test
a) Experimental Conditions
The mouse tail is placed in front of an infrared source. The light is focused on the ventral surface of the tail so as to produce a surface temperature of 55° C. As soon as the mouse moves the tail, the reaction time is then measured. The compounds studied are administered subcutaneously.
Three measurements are taken before administration of the product so as to have a baseline time. The percentage of mice in which analgesia has occurred is then represented by the number of mice having a reaction time which is at least double the baseline time divided by the total number of mice. The ED50 dose represents the concentration which gives 50% of mice in which analgesia has occurred.
[…]. We determined the ED50, which represents the dose which gives an analgesic effect in 50% of the mice in the “tail flick” model, for each product. […].

μ2 receptor = target: T2, μ2 receptor (Bos taurus, UniProt P79350); assay: Receptor affinity, DAMGO binding in calf thalamus homogenate; conditions: DAMGO 1 nM with 5 nM DSLET
T2 construct: Tissue homogenates are prepared from calf brains; from tissue; host or cells: calf brain thalamus homogenate
T2 sequence (P79350 whole entry): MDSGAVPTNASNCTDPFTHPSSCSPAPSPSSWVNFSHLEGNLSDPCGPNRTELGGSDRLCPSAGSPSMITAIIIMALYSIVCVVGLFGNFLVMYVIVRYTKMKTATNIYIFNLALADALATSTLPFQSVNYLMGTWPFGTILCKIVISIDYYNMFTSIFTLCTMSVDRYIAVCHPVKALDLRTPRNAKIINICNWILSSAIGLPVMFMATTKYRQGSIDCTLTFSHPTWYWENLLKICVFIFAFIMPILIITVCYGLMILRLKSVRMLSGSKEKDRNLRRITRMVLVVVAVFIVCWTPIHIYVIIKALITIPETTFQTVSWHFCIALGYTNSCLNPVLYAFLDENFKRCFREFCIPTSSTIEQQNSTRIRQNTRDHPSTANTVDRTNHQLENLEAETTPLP
Protocol: as §1

[3] = In situ brain perfusion (penetration through the BBB); assay type: in vivo; conditions: mouse, perfusion of 60 seconds in buffer
Excerpt: a) Experimental Conditions: In Situ Brain Perfusion
Mice (20-25 g, Iffa-Credo; l'Arbresle, France) are anesthetized. After exposure of the common carotid, the right external carotid artery is ligated at the level of the bifurcation with the internal carotid, and the common carotid is ligated between the heart and the site of the implantation of the catheter (polyethylene catheter, ID: 0.76). Said catheter, pre-filled with a heparin solution (100 units/ml) is inserted into the common carotid. The mice are perfused with a perfusion buffer (128 mM NaCl, 24 mM NaHCO3, 4.2 mM KCl, 2.4 mM NaH2PO4, 1.5 mM CaCl2, 0.9 mM MgSO4 and 9 mM D-glucose). This buffer is filtered and then a mixture containing 95% O2/5% CO2 is bubbled through in order to maintain the pH in the region of 7.4 and to supply the brain with oxygen during the perfusion.
The mice are perfused with the buffer containing the free M6G (compound 1: specific activity 84 mCi/mg) or the vectorized M6G (compound 2; specific activity 14.3 mCi/mg). Just before the start of the perfusion, the heart is stopped by sectioning the ventricles, in order to avoid reflux of the perfusate during the perfusion. The right hemisphere is then perfused at a rate of 10 ml/min for 60 seconds, after which time the mouse is decapitated. The amount of radioactivity in the right hemisphere is then measured and the brain penetration index (Kin) is calculated. […]

For `CN1CC[C@]23c4c5ccc(O)c4O[C@H]2[C@@H](O[C@@H]2O[C@H](C(=O)O)[C@@H](O)[C@H](O)[C@H]2O)C=C[C@H]3[C@H]1C5` [Compound 1, morphine-6-glucuronide], the Ki (μ1 receptor) was 2.67 nM, the “effect on oxygen saturation (FIG. 5, B and C)” value (“effect on oxygen saturation” below) [1] was “very significant decrease in the oxygen saturation” and the “oxygen level (SO2)” value [1] was roughly 50%. For the same molecule, the “mortality (FIG. 5, C)” value ([1]; 10×ED50 dose, 60 min time point) was “caused the death of some animals”, the “effect on O2 saturation (FIG. 5, A)” value [1] was “no effect” and the Ki (delta receptor) was 23 nM. For the same molecule, the “analgesic activity compared with morphine” value [2] was “roughly the same analgesic activity”, the “Duration of the effect” value (Tail flick test; intravenous) was 90 min and the ED50 (Tail flick test; intravenous) was greater than 5.7 µmol/kg. For the same molecule, the “Duration of the effect” value (Tail flick test; subcutaneous) was 150 min, the ED50 (Tail flick test; subcutaneous) was 6.6 µmol/kg and the Ki (μ2 receptor) was 5.82 nM.
In the case of `CC(C)C[C@H](NC(=O)[C@H](CCCNC(=N)N)NC(=O)[C@H](CCCNC(=N)N)NC(=O)CCSSCCNC(=O)[C@H]1O[C@@H](O[C@H]2C=C[C@H]3[C@H]4Cc5ccc(O)c6c5[C@@]3(CCN4C)[C@H]2O6)[C@H](O)[C@@H](O)[C@@H]1O)C(=O)N[C@@H](CO)C(=O)N[C@@H](Cc1ccc(O)cc1)C(=O)N[C@@H](CO)C(=O)N[C@@H](CCCNC(=N)N)C(=O)N[C@@H](CCCNC(=N)N)C(=O)N[C@@H](CCCNC(=N)N)C(=O)N[C@@H](Cc1ccccc1)C(=O)O` [Compound 2] ([Mpa](X1)RRLSYSRRRF-OH; C-terminus assumed), the “effect on oxygen saturation” value [1] is reported as “no notable decrease”, the “effect on O2 saturation (FIG. 5, A)” value [1] is reported as “no effect” and the “increase in passage into the brain (Kin) versus free M6G (FIG. 4)” value [3] is reported as “approximately 100 fold”. It also gave a Ki (delta receptor) of 19 nM and a Ki (μ2 receptor) of 0.6 nM.
With `CN1CC[C@]23c4c5ccc(O)c4O[C@H]2[C@@H](O)C=C[C@H]3[C@H]1C5` [Compound 3, Morphine] the “effect on oxygen saturation” value [1] was “very significant decrease in the oxygen saturation”, the “oxygen level (SO2)” value [1] was roughly 50% and the “effect on O2 saturation (FIG. 5, A)” value [1] was “small decrease in O2 saturation”. The ED50 (Tail flick test; Mus musculus, sc, subcutaneous, read-out: ED50) was 11.6 µmol/kg, the ED50 (Tail flick test; Mus musculus, intravenous, read-out: ED50) was 15.4 µmol/kg and the “Duration of the effect” value (Tail flick test; intravenous) was 60 min. For the same molecule, the “Duration of the effect” value (Tail flick test; subcutaneous) was 90 min.

— patent publication US20040248806A1, “Compounds comprising an analgesic molecule linked to a vector that can vectorise said molecule through the hematoencephalic barrier and pharmaceutical compositions containing same” (priority 2001, published 2004)
